Results on three molecules are retold here after article PMC11784221, “Platelet factor 4-derived C15 peptide broadly inhibits enteroviruses by disrupting viral attachment” (Journal of Virology, 2025).

In one data set the test system is RD cells. Conditions: 48 h treatment, CCK-8, absorbance 450 nm, n = 3.
In the next data set the test system is EV71. The following applies: read-out: EC50 for EV71; RD cells, 48 h, intracellular VP1 mRNA by RT-qPCR vs GAPDH, three independent experiments, four-parameter fit. (Real-time PCR tracks product formation cycle by cycle.)
A further data set deals with CA16. The following applies: read-out: EC50 for CA16; RD cells, 48 h, intracellular VP1 mRNA by RT-qPCR vs GAPDH, three independent experiments, four-parameter fit.
Data set [1] in a line: C15 alone in neonatal mice without CA6 infection (toxicity). Format: in vivo, ICR mice. The method, then:
To investigate the anti-viral efficacy of C15 against CA6 in vivo, we established a lethal infection model using 1-day-old ICR mice. The mice were infected with CA6 at a concentration of 10^7 TCID50 and then treated with two different concentrations of C15 (1 and 5 mg/kg). The mice were monitored over a period of 7 days to assess various indicators (Fig. 7A). The mice in the control group, which received Dulbecco’s Modified Eagle Medium (DMEM) alone, began to succumb to the infection on day 4, with all mice dying by day 6. On day 6, the average clinical score of the mice in the control group was 5. […] Treatment with 1 mg/kg C15 improved survival rates by 60%, while 5 mg/kg C15 provided complete protection, achieving a 100% survival rate (Fig. 7D).
ICR pregnant specific pathogen-free mice were purchased from Beijing Vital River Laboratory. Pregnant mice gave birth approximately 5 days after arrival at the laboratory. One day-old ICR neonatal mice were used to establish the CA6 infection mouse model. The CA6 virus, at a concentration of 10^7 TCID50/mL, was mixed with varying concentrations of C15 (1 and 5 mg/kg) and intracranially injected into the 1 day-old neonatal mice (10 µL per mouse). Five experimental groups were designed, and observations of various indicators were conducted over the subsequent 7 days, as well as samples collected for analysis. […]

For data set [2], the system named is CA6. Conditions: read-out: EC50 for CA6; RD cells, 48 h, intracellular VP1 mRNA by RT-qPCR vs GAPDH, three independent experiments, four-parameter fit.
In data set [3] the test system is EVD68. Conditions: read-out: EC50 for EVD68; RD cells, 48 h, intracellular VP1 mRNA by RT-qPCR vs GAPDH, three independent experiments, four-parameter fit.
Data set [4] deals with EVD68. In words: Purified PF4-His added to cells infected with EVD68. Format: cell-based, enterovirus D68. The following applies: increasing doses of purified PF4-His, 48 h, Western blot, RT-qPCR, TCID50. Here is the method:
(§1) (A and B) HEK-293T cells transfected with cDNA-PF4-Myc or the VR1012 expression vector serving as a control. […] (C and D) Viral loads in the supernatant were evaluated by measuring VP1 gene mRNA levels using reverse transcription quantitative PCR (RT-qPCR). (E and H) PF4-His proteins expressed in Escherichia coli were added to the cell supernatant at the indicated concentration, and the cells were simultaneously infected with CA6 or EVD68. Cell lysates and supernatants (concentrated 100-fold) were collected at 48 h. Western blot was performed to detect the viral VP1 protein in the cells and supernatant, with tubulin serving as a loading control. (F and I) Intracellular mRNA levels of VP1 were determined by RT-qPCR, using GAPDH as a control. (G and J) 50% tissue culture infective dose (TCID50) assays were performed using supernatants collected from infected rhabdomyosarcoma cells at 48 h, containing various concentrations of PF4-His.
(§2) PF4 is a secreted protein. To further assess its anti-viral potential, PF4 proteins were expressed and purified from Escherichia coli. […]
(§3) The cDNA of PF4-His with His tag at the N-terminus was synthesized and inserted into PEXs-DH by Comate Bioscience Company and expressed in E. coli BL21-derived cells. […] The […] of the resulting proteins was determined through BCA Protein Assay Kits (Epizyme, #ZJ102L) analysis.
A general note: A western blot detects proteins with antibodies after separation by electrophoresis.

In data set [5] the test system is CA6. Briefly: Purified PF4-His added to cells infected with CA6. The following applies: increasing doses of purified PF4-His, 48 h, Western blot, RT-qPCR, TCID50. It counts as cell-based, coxsackievirus A6. Here is the method: as §1, §2, §3
Data set [6] deals with Enterovirus D68 (EVD68) virion, strain US/KY/14-18953 (enterovirus D68).
The target in data set [7] is Coxsackievirus A6 (CA6) virion, strain changchun046/CHN/2013 (coxsackievirus A6).

Where no end group is shown, it is not given here.

As for QAPLYKKIIKKLLES [C15], the 50% cytotoxic concentration in the data set on RD cells is recorded as above 100 µM. Also, the concentration giving a half-maximal response (EC50) with EV71 is 5.36 nM; in the data set with CA16, 10 nM; in the data set on CA6 [2], 3.12 nM; with EVD68 [3] it was 5.41 nM. Also, the “Toxicity in neonatal mice (clinical scores, body weight, survival rates versus DMEM control)” value in [1] (5 mg/kg C15 without CA6 infection, intracranial, 1-day-old ICR mice) is listed as “no toxicity”. The “VITT-related symptoms (weight loss, nosebleeds, gum bleeding, gastrointestinal bleeding)” value in [1] (injection of C15 alone in mice) was “did not result in VITT-related symptoms”.

B1: PF4-His: Platelet factor 4 with His tag at the N-terminus, expressed in E. coli and purified (protein)
chain: EAEEDGDLQCLCVKTTSQVRPRHITSLEVIKAGPHCPTAQLIATLKNGRKICLDLQAPLYKKIIKKLLES
modifications: left off: Myc, N-terminal, kept
notes: Platelet factor 4 with His tag at the N-terminus, expressed in E. coli and purified
As to B1, the “VP1 protein and mRNA levels of EVD68 and viral titer in supernatant” value in the data set on EVD68 [4] was “gradually decreased”. The “VP1 protein and mRNA levels of CA6 and viral titer in supernatant” value with CA6 [5] is reported as “gradually decreased”.
QAPLYKKIIKKLLES [C15 peptide (C-terminal 15 amino acids of PF4)]: in [6], the EC50 of inhibition of EVD68 replication in RD cells (intracellular VP1 mRNA by RT-qPCR, 48 h) was 5.41 nM. Also, in [7], the EC50 of inhibition of CA6 replication in RD cells (intracellular VP1 mRNA by RT-qPCR, 48 h) came to 3.12 nM.

By EC50 is commonly meant the concentration needed to bring the measured effect to its halfway point.
